Measurements as given in PMC12525867, “Aromaticity Tuning in Biaryl Monophosphines and Their Derivatives” (Molecules, 2025).
≈ marks a conversion by molar mass, not a printed value.

What was measured:
[1] = Cytotoxicity, microculture tetrazolium (MTT) test, VERO; type: cell-based; settings: African green monkey, ATCC CCL-81; VERO (normal kidney cells), 24 h incubation, MTT; ± SD
Experimental: (§1) The cytotoxicity of biaryl monophosphines was tested in vitro in normal (VERO) and cancer-derived (H1HeLa) cells after 24 h of incubation using a microculture tetrazolium test. Table 2 presents the CC50 (concentrations decreasing the cellular viability by 50%) values calculated from dose–response cytotoxicity curves (Figure 4).
(§2) Cytotoxicity was evaluated using a microculture tetrazolium test as previously described, and details can be found in the Supplementary Materials. The cell lines used in the presented study were acquired from the American Type Culture Collection (ATCC); the one used for cytotoxicity testing included non-cancerous VERO (kidney; ATCC CCL-81) cells and cancer-originating H1HeLa (cervical adenocarcinoma; ATCC CRL-1958) cells. VERO cells were cultured in Dulbecco’s Modified Eagle’s Medium (DMEM; Corning, Tewksbury, MA, USA), while Eagle’s Minimum Essential Medium (MEM; Corning) was used for H1HeLa. Antibiotics (penicillin–streptomycin solution, Corning) and fetal bovine serum (FBS, Corning) were added to cell media. Cells were incubated in a 5% CO2 atmosphere at 37 °C (CO2 incubator, Panasonic Healthcare Co., Tokyo, Japan). Briefly, the monolayers of VERO or H1HeLa cells in 96-well plates (Falcon, Corning) were treated with serial dilutions of selected compounds for 24 h. After this, the medium was removed, the plates were washed with phosphate buffered saline (PBS; Corning), a 10% solution of (3-(4,5-dimethylthiazol-2-yl)-2,5-diphenyltetrazolium bromide (MTT; Sigma-Aldrich, St. Louis, MO, USA) (5 mg/mL) in FBS-free cell media was added, and the incubation continued for the next 4 h. Subsequently, the precipitated formazan crystals were dissolved, and after overnight incubation at 37 °C, the Synergy H1 Multi-Mode Microplate Reader (BioTek Instruments, Inc., Winooski, VT, USA) with Gen5 software (ver. 3.09.07; BioTek Instruments, Inc.) was used for absorbance acquisition (540 and 620 nm). Data was exported to GraphPad Prism (ver. 10) to calculate the CC50 values (50% cytotoxic concentration) from dose–response curves.
(§3) Aromaticity Tuning in Biaryl Monophosphines and Their Derivatives […]
(§4) Cell line maintenance and in vitro experiments
(§5) The cytotoxicity of selected biaryl monophosphines was evaluated in vitro towards normal VERO (ATCC, CCL-81) cells and cancer-derived cell line H1HeLa (cervical adenocarcinoma; ATCC (American Type Culture Collection) CRL-1958) using 3-(4,5-dimethylthiazol-2-yl)-2,5-diphenylte-trazolium bromide (MTT) based protocol.
(§6) Media used for in vitro culturing included Dulbecco's Modified Eagle's Medium (DMEM, Corning, Tewksbury, MA, USA) used for VERO cells and Modified Eagle Medium (MEM, Corning) used for H1HeLa. Cell media used in the experiments were supplemented with antibiotics (Penicil-lin-Streptomycin Solution, Corning) and fetal bovine serum (FBS, Corning) – 10% (cell passaging) and 2% (cell maintenance and experiments). Phosphate-buffered saline (PBS) and trypsin were bought from Corning, whereas MTT (3-(4,5-dimethylthiazol-2-yl)-2,5-diphenyltetrazolium bromide) from Sigma (Sigma-Aldrich, St. Louis, MO, USA). SDS was purchased from PanReac Applichem (Darmstadt, Germany). Incubation was carried out in a 5% CO2 atmosphere at 37°C (CO2 incubator, Panasonic Healthcare Co., Tokyo, Japan).
(§7) Concentrations of cells for passaging were as follows: VERO – 1.5*10^5 cells/mL, H1HeLa – 2*10^5 cells/mL. Routine observations of cell cultures and experiments were carried out using an in-verted microscope (CKX41, Olympus Corporation, Tokyo, Japan) equipped with a ca mera (Moti-cam 3+, Motic, Hong Kong), and the results were recorded (Motic Images Plus 2.0, Motic).
(§8) Stock solutions of biaryl monophosphines were prepared by dissolving the samples in cell culture grade DMSO (PanReac Applichem).
(§9) Evaluation of cytotoxicity
(§10) Cytotoxicity was tested using an MTT-based protocol. The cells were passaged into 96-well plates (Falcon, TC-treated, Corning) and, after overnight incubation, treated with serial dilutions of […]

[2] = tested on: VERO cells; assay: as above; type: cell-based; settings: VERO, 24 h, microscopy
Experimental: as §1, §2, §3, §4, §5, §6, §7, §8, §9, §10

[3] = tested on: M. luteus ATCC 10240; assay: Antibacterial screening, broth microdilution (MIC/MBC); type: cell-based, Micrococcus luteus; settings: Micrococcus luteus, ATCC10240; M. luteus ATCC 10240; read-out: MBC
Experimental: (§11) The antimicrobial activities of a series of compounds 1–5 were tested through the utilization of seven reference species, encompassing both Gram-positive (Staphylococcus aureus ATCC 29213, Staphylococcus epidermidis ATCC 12228, Micrococcus luteus ATCC 10240) and Gram-negative (Escherichia coli ATCC 25922, Klebsiella pneumoniae ATCC 13883, Proteus mirabilis ATCC 12453, Acinetobacter baumannii ATCC 19606) bacteria as model microorganisms. For this purpose, microbial suspensions were prepared in sterile saline (0.85% NaCl) with an optical density of 0.5 McFarland standard, yielding a concentration of 150 × 10^6 CFU/mL (CFU, colony-forming units). All of the stock solutions of the tested compounds were dissolved in DMSO. Amoxicillin (Glentham Life Sciences Ltd., Corsham, UK) was used as a positive control.
(§12) The MIC values of the tested compounds were determined by serial twofold dilutions of 1–5 in Mueller Hinton Broth (MHB, Biomaxima, Lublin, Poland). The range of final 1–5 concentrations used was from 0.49 up to 1000 μg/mL, and for amoxicillin from 0.12 up to 250 μg/mL in the 96-well microtiter plates (Medlab, Raszyn, Poland), starting with 98 μL MHB and 2 μL bacterial inoculum added to each well. Positive controls consisted of 100 μL MHB in each well with the tested compounds at the same concentration range. The negative controls consisted of 100 μL of MHB only. Each set of tests and controls was established with three replicates. The microtiter plates were then subjected to an incubation period of 24 h at a temperature of 35 ± 2 °C. After incubation, the optical density of the microbial growth was measured at a wavelength of 600 nm using a microplate reader, the Biotek Elx800 (BioTek Instruments, Inc., Winooski, VT, USA). The MIC value was defined as the lowest concentration of the tested compound at which there was no visible growth of the tested microorganisms. The determination of the MIC values was achieved by employing the broth microdilution method, in accordance with the recommendations of the European Committee on Antimicrobial Susceptibility Testing (EUCAST). […] Then, the MHA plates were incubated overnight at 35 ± 2 °C. […] The MIC and MBC values were reported in μg/mL, according to the EUCAST reference.

[4] = tested on: E. coli ATCC 25922; assay: as above; type: cell-based, Escherichia coli; settings: Escherichia coli, ATCC25922; for MIC: E. coli ATCC 25922, MHB, 24 h, 35 °C, read-out: MIC
Experimental: as §11, §12

[5] = tested on: K. pneumoniae ATCC 13883; assay: as above; type: cell-based, Klebsiella pneumoniae; settings: Klebsiella pneumoniae, ATCC13883; K. pneumoniae ATCC 13883, MHB, 24 h, 35 °C; read-out: MIC
Experimental: as §11, §12

SMILES	CC50 at 24 h [1] [µg/mL]	influence on morphology of the cellular monolayer ([2]; 12.5 µg/mL)	MBC [3] [µg/mL]	MIC [4] [µg/mL]	MIC [5] [µg/mL]	influence on morphology of the cellular monolayer ([2]; 1.6 µg/mL)	influence on morphology of the cellular monolayer ([2]; 3.1 µg/mL)	influence on morphology of the cellular monolayer ([2]; 6.3 µg/mL)	MBC ([4]; E. coli ATCC 25922) [µg/mL]
COc1ccccc1-c1c(P(=O)(C2CCCCC2)C2CCCCC2)c(OC)c2ccccc2c1OC [Compound 2, Dicyclohexyl[1,4-dimethoxy-3-(2-methoxyphenyl)naphthalen-2-yl]phosphane oxide]	7.78 ± 0.44	some fibroblast-shaped VERO cells were noticeable	> 1000	> 1000	> 1000				
COc1cc(OC)c(-c2c(P(=O)(C3CCCCC3)C3CCCCC3)c(O)c3ccccc3c2OC)c(OC)c1 [Compound 3, 2-(Dicyclohexylphosphoryl)-4-methoxy-3-(2,4,6-trimethoxyphenyl)naphthalen-1-ol]	3.11 ± 0.14	destroyed the cellular monolayer	> 1000	250 to 500 (≈ 452 to 905 µM)	500 (≈ 905 µM)	the cellular monolayer resembled the control cells	only a fraction of shrunken cells visible	most of the cells showed cytotoxic damage	> 1000
COc1cc(OC)c(-c2c(P(=O)(C3CCCCC3)C3CCCCC3)c(OC)c3ccccc3c2OC)c(OC)c1 [Compound 1, Dicyclohexyl[1,4-dimethoxy-3-(2,4,6-trimethoxyphenyl)naphthalen-2-yl]phosphane oxide]	9.82 ± 0.59	some fibroblast-shaped VERO cells were noticeable	125 (≈ 221 µM)	500 to 1000 (≈ 882 to 1760 µM)	> 1000				
